Like-named read-outs stand apart in the source and are kept apart here. Blank lines part the entries; values can stand above or below the compound they belong to.
What was measured:
CYP26A1 = CYP26A1 (Homo sapiens (Human), UniProt O43174); test: CYP26A1 inhibition assay (9-cis-4-OH-RA formation from 9-cis-RA, recombinant microsomes); type: biochemical; conditions: for CYP26A1/CYP26B1: ratio of IC50 values, Table 2; for inhibition at 100 µM: read-out: Maximum inhibition of CYP26A1 observed
CYP26B1 [1] = target: T1, CYP26B1 (Homo sapiens (Human), UniProt Q9NR63); test: CYP26B1 inhibition assay (9-cis-4-OH-RA formation from 9-cis-RA, recombinant microsomes); type: biochemical
CYP26B1 [2] = target: T1, CYP26B1; test: Michaelis-Menten kinetics of RA hydroxylation by CYP26B1
CYP2C9 = CYP2C9 (Homo sapiens (Human), UniProt P11712); test: Inhibition of CYP2C9 in pooled human liver microsomes (diclofenac probe)
CYP3A4 = CYP3A4 (Homo sapiens (Human), UniProt P08684); test: Inhibition of CYP3A4 in pooled human liver microsomes (midazolam probe); type: in vitro ADME
CYP2C8 = CYP2C8 (Homo sapiens (Human), UniProt P10632); test: Inhibition of CYP2C8 in pooled human liver microsomes (paclitaxel probe); type: in vitro ADME
[3] = animal models; cited from earlier work
[4] = system: cytochromes involved in the biosynthetic pathways of testicular, ovarian and adrenal steroids; conditions: Berth-Jones 2000; Bruynseels 1990; cited from earlier work
[5] = Table 3, unit inferred, read-out: CYP2681 (CYP26B1, IC50)
[6] = Table 3, unit inferred, read-out: CYP26A1 (IC50)
[7] = Table 4, acidic compounds, unit inferred, read-out: CYP26B1 (IC50)
[8] = Table 4, acidic compounds, unit inferred, read-out: CYP26A1 (IC50)
[9] = read-out: CYP2C9 IC50 nM, pooled human liver microsomes, diclofenac 5 μM
[10] = pooled human liver microsomes, paclitaxel 4 μM

CYP2C8, sequence (P10632 whole entry): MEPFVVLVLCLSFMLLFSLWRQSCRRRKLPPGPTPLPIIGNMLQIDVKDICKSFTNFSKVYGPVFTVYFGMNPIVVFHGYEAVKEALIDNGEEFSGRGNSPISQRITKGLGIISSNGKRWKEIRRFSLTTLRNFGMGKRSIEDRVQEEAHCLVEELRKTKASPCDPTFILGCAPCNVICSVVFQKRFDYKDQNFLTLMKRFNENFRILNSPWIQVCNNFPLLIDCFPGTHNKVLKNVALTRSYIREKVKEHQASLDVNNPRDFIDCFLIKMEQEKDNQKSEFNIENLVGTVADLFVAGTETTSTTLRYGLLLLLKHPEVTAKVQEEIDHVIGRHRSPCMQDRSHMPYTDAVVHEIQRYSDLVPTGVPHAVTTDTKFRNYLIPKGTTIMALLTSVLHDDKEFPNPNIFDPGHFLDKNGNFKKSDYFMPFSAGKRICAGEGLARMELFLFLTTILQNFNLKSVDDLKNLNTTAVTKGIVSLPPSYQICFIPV
CYP2C9, sequence (P11712 whole entry): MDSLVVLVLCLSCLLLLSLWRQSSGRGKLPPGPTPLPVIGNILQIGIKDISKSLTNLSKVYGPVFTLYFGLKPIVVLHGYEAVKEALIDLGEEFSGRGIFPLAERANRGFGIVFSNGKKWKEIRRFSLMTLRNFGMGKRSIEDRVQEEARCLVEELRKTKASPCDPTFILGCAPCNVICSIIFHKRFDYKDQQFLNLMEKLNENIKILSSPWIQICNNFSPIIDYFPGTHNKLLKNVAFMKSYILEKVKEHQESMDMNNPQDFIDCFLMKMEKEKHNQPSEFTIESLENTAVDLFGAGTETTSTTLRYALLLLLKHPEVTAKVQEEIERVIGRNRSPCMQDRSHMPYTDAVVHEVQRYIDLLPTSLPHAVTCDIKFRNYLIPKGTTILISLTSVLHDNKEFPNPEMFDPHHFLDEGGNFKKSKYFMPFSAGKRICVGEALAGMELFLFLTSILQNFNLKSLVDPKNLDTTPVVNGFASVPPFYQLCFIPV
T1 sequence (Q9NR63 whole entry): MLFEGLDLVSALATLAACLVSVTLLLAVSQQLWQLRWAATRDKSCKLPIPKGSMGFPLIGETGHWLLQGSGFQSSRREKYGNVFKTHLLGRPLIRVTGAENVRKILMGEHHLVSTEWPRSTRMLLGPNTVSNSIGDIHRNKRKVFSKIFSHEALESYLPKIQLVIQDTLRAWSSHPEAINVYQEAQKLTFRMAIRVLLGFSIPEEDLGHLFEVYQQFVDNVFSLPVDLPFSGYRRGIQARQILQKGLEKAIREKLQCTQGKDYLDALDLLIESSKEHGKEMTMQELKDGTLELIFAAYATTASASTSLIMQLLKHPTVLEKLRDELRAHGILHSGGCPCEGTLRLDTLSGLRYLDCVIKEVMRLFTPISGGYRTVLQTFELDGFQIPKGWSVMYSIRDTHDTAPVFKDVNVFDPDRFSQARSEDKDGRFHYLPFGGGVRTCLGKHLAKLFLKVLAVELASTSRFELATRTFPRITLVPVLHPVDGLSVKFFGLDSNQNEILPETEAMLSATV
CYP3A4, sequence (P08684 whole entry): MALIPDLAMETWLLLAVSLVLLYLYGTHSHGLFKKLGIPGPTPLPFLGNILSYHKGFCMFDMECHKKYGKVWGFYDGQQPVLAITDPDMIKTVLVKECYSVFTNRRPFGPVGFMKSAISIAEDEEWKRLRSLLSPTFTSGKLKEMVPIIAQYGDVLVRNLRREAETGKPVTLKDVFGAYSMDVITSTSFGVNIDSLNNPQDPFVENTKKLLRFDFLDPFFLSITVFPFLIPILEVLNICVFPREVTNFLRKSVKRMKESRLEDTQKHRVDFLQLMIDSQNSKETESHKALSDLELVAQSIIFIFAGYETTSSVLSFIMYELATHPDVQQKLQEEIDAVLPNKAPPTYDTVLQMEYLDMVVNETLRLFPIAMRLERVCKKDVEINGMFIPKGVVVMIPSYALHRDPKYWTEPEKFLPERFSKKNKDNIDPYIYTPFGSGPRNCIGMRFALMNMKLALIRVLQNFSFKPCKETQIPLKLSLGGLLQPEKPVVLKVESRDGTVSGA
CYP26A1, sequence (O43174 whole entry): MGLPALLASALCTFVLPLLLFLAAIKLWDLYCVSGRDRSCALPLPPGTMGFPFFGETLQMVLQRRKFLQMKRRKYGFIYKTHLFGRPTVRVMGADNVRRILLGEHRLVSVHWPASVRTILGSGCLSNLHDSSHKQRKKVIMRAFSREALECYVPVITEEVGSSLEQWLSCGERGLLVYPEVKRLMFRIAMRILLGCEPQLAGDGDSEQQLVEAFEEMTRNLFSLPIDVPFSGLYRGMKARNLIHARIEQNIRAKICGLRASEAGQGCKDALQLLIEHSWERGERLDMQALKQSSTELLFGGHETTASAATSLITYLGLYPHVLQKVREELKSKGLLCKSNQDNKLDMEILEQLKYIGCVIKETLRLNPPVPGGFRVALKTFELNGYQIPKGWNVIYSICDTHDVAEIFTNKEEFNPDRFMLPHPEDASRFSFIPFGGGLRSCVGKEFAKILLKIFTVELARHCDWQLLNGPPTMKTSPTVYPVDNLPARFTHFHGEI

SMILES: COc1ccc(-c2ccc(CCC(=O)O)cc2)cc1C12CC3CC(CC(C3)C1)C2
IC50 (CYP26B1 [1]; Table 5, read-out: CYP26B1): 0.516 µM

SMILES: COc1ccc(Nc2ccc(/C=C/C(=O)O)cc2)cc1C12CC3CC(CC(C3)C1)C2
IC50 (CYP26B1 [1]; Table 5, read-out: CYP26B1): 0.087 µM | IC50 (CYP26A1; Table 5, read-out: CYP26A1): 0.729 µM

SMILES: CC1(C)CCC(C)(C)c2cc(C3(c4ccc5cc(C(=O)O)ccc5c4)OCCO3)ccc21
IC50 (CYP26B1 [1]; [7]): 1.03 µM | IC50 (CYP26A1; [8]): 0.109 µM

SMILES: CC1(C)C(=O)C(C)(C)c2cc(C(=O)Nc3ccc(C(=O)O)cc3)ccc21
CYP26A1/CYP26B1 (CYP26A1): 0.6

SMILES: CC1(C)CCC(C)(C)c2cc(C3(c4ccc(/C=C/C(=O)O)cc4)OCCO3)ccc21
IC50 (CYP26B1 [1]; Table 5, read-out: CYP26B1): > 10 µM | IC50 (CYP26A1; Table 5, read-out: CYP26A1): 0.239 µM

SMILES: CC1(C)CCC(C)(C)c2cc(C3(c4ccc(CCC(=O)O)cc4)OCCO3)ccc21
IC50 (CYP26B1 [1]; Table 5, read-out: CYP26B1): 14.5 µM | IC50 (CYP26A1; Table 5, read-out: CYP26A1): 0.34 µM

SMILES: CC1(C)CCC(C)(C)c2cc(C3(c4ccc(/C=C/C(=O)O)cc4)SCCS3)ccc21
IC50 (CYP26B1 [1]; Table 5, read-out: CYP26B1): 4.4 µM | IC50 (CYP26A1; Table 5, read-out: CYP26A1): 0.006 µM

SMILES: O=C(O)/C=C/c1ccc(Nc2ccc(O)c(C34CC5CC(CC(C5)C3)C4)c2)cc1
IC50 (CYP26B1 [1]; Table 5, read-out: CYP26B1): 0.095 µM | IC50 (CYP26A1; Table 5, read-out: CYP26A1): 0.232 µM

SMILES: CC1=C(/C=C/C(C)=C/C=C/C(C)=C/C(=O)O)C(C)(C)CCC1 [atRA, all-trans-retinoic acid]
Km (CYP26B1 [2]; read-out: Km of atRA for CYP26B1): 0.019 µM

SMILES: CC(C(c1ccc(Nc2nc3ccccc3s2)cc1)n1ccnc1)N(C)C (stereo not shown) [Example R116010, R116010]
IC50 (CYP2C9): > 1000 nM | IC50 (CYP2C9; [9]): 5760 nM | Inhibition of CYP3A4 (in words) (CYP3A4): potent CYP3A4 inhibitors | IC50 (CYP2C8; bound stated): > 1 µM | IC50 (CYP2C8; [10]): 1.76 µM

SMILES: COC(=O)c1ccc(OC/C(=N\O)c2ccc3c(c2)C(C)(C)CCC3(C)C)cc1
CYP26A1/CYP26B1 (CYP26A1): 7

SMILES: O=C(O)CCc1ccc(-c2ccc(O)c(C34CC5CC(CC(C5)C3)C4)c2)cc1
IC50 (CYP26B1 [1]; Table 5, read-out: CYP26B1): 0.302 µM | IC50 (CYP26A1; Table 5, read-out: CYP26A1): 0.314 µM

SMILES: CCC(CC)[C@H](c1ccc(Nc2nc3ccccc3s2)cc1)n1cncn1 [talarozole, (R)—N-[4-[2-ethyl-1-(1H-1,2,4-triazol-1-yl)butyl]phenyl]-2-benzo-thiazolamine]
Inhibition of CYP2C9 (in words) (CYP2C9; pooled human liver microsomes): nanomolar affinity | IC50 (CYP2C9; [9]): 680 nM | Inhibition of CYP3A4 (in words) (CYP3A4): nanomolar affinity | effect on concentration of atRA in vivo [3]: increase the concentration of atRA in vivo | IC50 (CYP26B1 [1]; Table 5, read-out: CYP26B1): 0.00046 µM | Inhibition of CYP2C8 (in words) (CYP2C8; pooled human liver microsomes): nanomolar affinity | IC50 (CYP2C8; [10]): 0.22 µM | IC50 (CYP26A1; Table 5, read-out: CYP26A1): 0.0051 µM

SMILES: O=C(O)CCc1ccc(Nc2ccc(O)c(C34CC5CC(CC(C5)C3)C4)c2)cc1
IC50 (CYP26B1 [1]; Table 5, read-out: CYP26B1): 0.108 µM | IC50 (CYP26A1; Table 5, read-out: CYP26A1): 1.75 µM

SMILES: CC1(C)CCC(C)(C)c2cc(C3(c4ccc5cc(C(=O)O)ccc5c4)SCCS3)ccc21 [drawing 152]
IC50 (CYP26A1; [8]): 0.061 µM

SMILES: CC1(C)CCC(C)(C)c2cc(C3(c4ccc5cc(C(=O)O)ccc5c4)SCCS3)ccc21 [drawing 146]
IC50 (CYP26B1 [1]; [5]): 1.03 µM | IC50 (CYP26A1; [6]): 0.061 µM

SMILES: COc1ccc(-c2ccc(/C=C/C(=O)O)cc2)cc1C12CC3CC(CC(C3)C1)C2
IC50 (CYP26B1 [1]; Table 5, read-out: CYP26B1): > 25 µM | IC50 (CYP26A1; Table 5, read-out: CYP26A1): > 25 µM

SMILES: CC1(C)CCC(C)(C)c2cc(Cc3ccc(CCC(=O)O)cc3)ccc21
IC50 (CYP26B1 [1]; Table 5, read-out: CYP26B1): 1.66 µM | IC50 (CYP26A1; Table 5, read-out: CYP26A1): > 10 µM

SMILES: CC1(C)CCSc2ccc(C#Cc3ccc(C(=O)O)cn3)cc21
CYP26A1/CYP26B1 (CYP26A1): 47

SMILES: CC1=C(/C=C/C(C)=C\C=C\C(C)=C\C(=O)O)C(C)(C)CCC1 [Example 9-cis-RA, 9-cis-RA]
Vmax for 9-cis-4-OH-RA formation by CYP26B1 (CYP26B1 [2]): 3.6 pmol/min/pmol P450 | fold greater Km than atRA for CYP26B1 (CYP26B1 [2]): 50 fold | intrinsic clearance (CYP26B1 [2]; from Km and Vmax): 6.5 µL/min | Km (CYP26B1 [2]; read-out: Km for 9-cis-4-OH-RA formation by CYP26B1, substrate 9-cis-RA 50-1000 nM, 5 min): 0.555 µM

SMILES: COc1ccc(Nc2ccc(CCC(=O)O)cc2)cc1C12CC3CC(CC(C3)C1)C2
IC50 (CYP26B1 [1]; Table 5, read-out: CYP26B1): 0.051 µM | IC50 (CYP26A1; Table 5, read-out: CYP26A1): 0.051 µM

SMILES: Clc1cccc(C(c2ccc3[nH]cnc3c2)n2ccnc2)c1 (stereo not shown) [liarozole]
Inhibition of CYP2C9 (in words) (CYP2C9; pooled human liver microsomes): weak inhibitor | IC50 (CYP2C9; [9]): 1630 nM | Inhibition of CYP3A4 (in words) (CYP3A4): weak inhibitor | effect on concentration of atRA in vivo [3]: increase the concentration of atRA in vivo | IC50 (CYP26B1 [1]; Table 5, read-out: CYP26B1): 0.018 µM | Inhibition of CYP2C8 (in words) (CYP2C8; pooled human liver microsomes): inhibited CYP2C8 potently | IC50 (CYP2C8; [10]): 0.48 µM | inhibition of other cytochromes of steroid biosynthesis [4]: also inhibits other cytochromes involved in the biosynthetic pathways of testicular, ovarian and adrenal steroids

SMILES: COC(=O)c1ccc(OC/C(=N/O)c2ccc3c(c2)C(C)(C)CCC3(C)C)cc1
CYP26A1/CYP26B1 (CYP26A1): 8

SMILES: CCOC(=O)c1ccc(C#Cc2ccc3c(c2)C(C)(C)CCS3)nc1
inhibition at 100 µM (CYP26A1): 15%

Results, then the compound that gave them:

CYP26A1/CYP26B1 (CYP26A1): 9
SMILES: CC1(C)CCC(C)(C)c2cc(C#Cc3ccc(C(=O)O)cc3)ccc21

IC50 (CYP26B1 [1]; [5]): 14.2 µM | IC50 (CYP26A1; [6]): 3.3 µM
SMILES: CC1(C)CCC(C)(C)c2cc(C3(c4ccc(C(=O)O)cc4)OCCO3)ccc21 [drawing 145]

IC50 (CYP26B1 [1]; [7]): 1.09 µM | IC50 (CYP26A1; [8]): 1.28 µM
SMILES: CC1(C)CCC(C)(C)c2cc(C3(c4ccc(C(=O)O)cc4)SCCS3)ccc21

CYP26A1/CYP26B1 (CYP26A1): 2.5
SMILES: CC1(C)CCC(C)(C)c2cc(C(=O)Nc3ccc(C(=O)O)cc3)ccc21

CYP26A1/CYP26B1 (CYP26A1): 1.1
SMILES: C/C(=C\c1ccc(C(=O)O)cc1)c1ccc2c(c1)C(C)(C)CCC2(C)C

CYP26A1/CYP26B1 (CYP26A1): 1.8
SMILES: CC1(C)CCC(C)(C)c2cc(NC(=O)c3ccc(C(=O)O)cc3)ccc21

IC50 (CYP26B1 [1]; [5]): 4 µM | IC50 (CYP26A1; [6]): 12.3 µM
SMILES: C=C(c1ccc(C(=O)O)cc1)c1cc2c(cc1C)C(C)(C)CCC2(C)C

CYP26A1/CYP26B1 (CYP26A1): 2
SMILES: CC1(C)CCC(C)(C)c2cc(C(O)COc3ccc(C(=O)O)cc3)ccc21 (stereo not shown)

IC50 (CYP26B1 [1]; [7]): 12.6 µM | IC50 (CYP26A1; [8]): 7.78 µM
SMILES: CC1(C)CCC(C)(C)c2cc(C3(c4ccc(C(=O)O)cc4)OCCO3)ccc21 [drawing 148]

inhibition at 100 µM (CYP26A1): 15%
SMILES: COC(=O)c1ccc(OCC(=O)c2ccc3c(c2)C(C)(C)CCC3(C)C)cc1

CYP26A1/CYP26B1 (CYP26A1): 3
SMILES: CC1(C)CCC(C)(C)c2cc(/C(COc3ccc(C(=O)O)cc3)=N\O)ccc21

CYP26A1/CYP26B1 (CYP26A1): 4
SMILES: CC1(C)CCC(C)(C)c2cc(C(=O)COc3ccc(C(=O)O)cc3)ccc21

— US9963439B2, “Specific inhibitors of cytochrome P450 26 retinoic acid hydroxylase” (University of Washington Through its Center for …, priority 2013, dated 2018)
